Test results taken from ChEMBL document CHEMBL2074061, “Inhibition of transport across the hepatocyte canalicular membrane by the antibiotic fusidate” (Biochem Pharmacol, 2002).

Assays:
[1] = molecular target: T1, ATP-binding cassette sub-family C member 2 (Rattus norvegicus, UniProt Q63120); assay: TP_TRANSPORTER: inhibition of LTC4 uptake in canalicular membrane vesicles of rat liver; type: functional, cell membranes, Canalicular membrane vesicle
[2] = molecular target: T1, ATP-binding cassette sub-family C member 2; assay: TP_TRANSPORTER: inhibition of LTC4 uptake in Mrp2-expressing HEK cells; type: functional, cell-based, HEK293
[3] = molecular target: T1, ATP-binding cassette sub-family C member 2; assay: TP_TRANSPORTER: inhibition of E217betaG uptake in canalicular membrane vesicles of rat liver; type: functional, cell membranes, Canalicular membrane vesicle
Bile salt export pump = molecular target: T2, Bile salt export pump (Rattus norvegicus, UniProt O70127); assay: TP_TRANSPORTER: inhibition of Taurocholate uptake in canalicular membrane vesicles of rat liver; type: functional, cell membranes, Canalicular membrane vesicle
T2 sequence (O70127 whole entry): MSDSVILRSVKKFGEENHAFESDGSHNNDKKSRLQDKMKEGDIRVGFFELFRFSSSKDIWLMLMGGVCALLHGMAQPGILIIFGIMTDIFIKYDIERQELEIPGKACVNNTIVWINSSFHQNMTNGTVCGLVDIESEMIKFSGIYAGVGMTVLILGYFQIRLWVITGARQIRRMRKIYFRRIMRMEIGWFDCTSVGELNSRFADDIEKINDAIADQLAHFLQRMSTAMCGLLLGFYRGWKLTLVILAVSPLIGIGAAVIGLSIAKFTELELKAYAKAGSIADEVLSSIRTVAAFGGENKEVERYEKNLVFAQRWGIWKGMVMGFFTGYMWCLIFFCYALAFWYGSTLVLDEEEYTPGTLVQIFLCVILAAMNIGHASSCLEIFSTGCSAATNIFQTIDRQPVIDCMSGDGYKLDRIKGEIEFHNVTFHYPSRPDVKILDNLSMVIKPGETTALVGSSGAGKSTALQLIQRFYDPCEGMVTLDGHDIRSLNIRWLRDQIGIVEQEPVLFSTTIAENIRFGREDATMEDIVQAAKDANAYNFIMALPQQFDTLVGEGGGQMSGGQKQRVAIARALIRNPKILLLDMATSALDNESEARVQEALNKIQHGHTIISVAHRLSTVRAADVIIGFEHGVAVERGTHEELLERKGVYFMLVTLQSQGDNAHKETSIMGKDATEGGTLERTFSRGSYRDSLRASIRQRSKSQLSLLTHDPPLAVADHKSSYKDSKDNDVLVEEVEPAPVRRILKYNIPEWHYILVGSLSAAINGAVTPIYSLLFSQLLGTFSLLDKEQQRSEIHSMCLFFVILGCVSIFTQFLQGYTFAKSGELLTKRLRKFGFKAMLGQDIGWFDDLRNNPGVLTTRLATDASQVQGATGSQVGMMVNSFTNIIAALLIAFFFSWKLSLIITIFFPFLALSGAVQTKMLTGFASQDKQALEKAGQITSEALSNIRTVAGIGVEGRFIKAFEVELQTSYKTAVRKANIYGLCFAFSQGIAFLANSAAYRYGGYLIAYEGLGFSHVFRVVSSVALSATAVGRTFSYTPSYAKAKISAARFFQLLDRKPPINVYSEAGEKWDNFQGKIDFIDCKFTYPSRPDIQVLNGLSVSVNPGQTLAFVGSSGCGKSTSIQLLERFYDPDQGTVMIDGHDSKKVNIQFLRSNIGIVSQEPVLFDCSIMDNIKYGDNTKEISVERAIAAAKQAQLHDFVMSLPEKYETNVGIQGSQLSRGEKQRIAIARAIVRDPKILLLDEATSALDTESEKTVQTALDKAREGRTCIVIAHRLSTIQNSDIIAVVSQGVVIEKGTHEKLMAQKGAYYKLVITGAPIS

T1 sequence (Q63120 whole entry): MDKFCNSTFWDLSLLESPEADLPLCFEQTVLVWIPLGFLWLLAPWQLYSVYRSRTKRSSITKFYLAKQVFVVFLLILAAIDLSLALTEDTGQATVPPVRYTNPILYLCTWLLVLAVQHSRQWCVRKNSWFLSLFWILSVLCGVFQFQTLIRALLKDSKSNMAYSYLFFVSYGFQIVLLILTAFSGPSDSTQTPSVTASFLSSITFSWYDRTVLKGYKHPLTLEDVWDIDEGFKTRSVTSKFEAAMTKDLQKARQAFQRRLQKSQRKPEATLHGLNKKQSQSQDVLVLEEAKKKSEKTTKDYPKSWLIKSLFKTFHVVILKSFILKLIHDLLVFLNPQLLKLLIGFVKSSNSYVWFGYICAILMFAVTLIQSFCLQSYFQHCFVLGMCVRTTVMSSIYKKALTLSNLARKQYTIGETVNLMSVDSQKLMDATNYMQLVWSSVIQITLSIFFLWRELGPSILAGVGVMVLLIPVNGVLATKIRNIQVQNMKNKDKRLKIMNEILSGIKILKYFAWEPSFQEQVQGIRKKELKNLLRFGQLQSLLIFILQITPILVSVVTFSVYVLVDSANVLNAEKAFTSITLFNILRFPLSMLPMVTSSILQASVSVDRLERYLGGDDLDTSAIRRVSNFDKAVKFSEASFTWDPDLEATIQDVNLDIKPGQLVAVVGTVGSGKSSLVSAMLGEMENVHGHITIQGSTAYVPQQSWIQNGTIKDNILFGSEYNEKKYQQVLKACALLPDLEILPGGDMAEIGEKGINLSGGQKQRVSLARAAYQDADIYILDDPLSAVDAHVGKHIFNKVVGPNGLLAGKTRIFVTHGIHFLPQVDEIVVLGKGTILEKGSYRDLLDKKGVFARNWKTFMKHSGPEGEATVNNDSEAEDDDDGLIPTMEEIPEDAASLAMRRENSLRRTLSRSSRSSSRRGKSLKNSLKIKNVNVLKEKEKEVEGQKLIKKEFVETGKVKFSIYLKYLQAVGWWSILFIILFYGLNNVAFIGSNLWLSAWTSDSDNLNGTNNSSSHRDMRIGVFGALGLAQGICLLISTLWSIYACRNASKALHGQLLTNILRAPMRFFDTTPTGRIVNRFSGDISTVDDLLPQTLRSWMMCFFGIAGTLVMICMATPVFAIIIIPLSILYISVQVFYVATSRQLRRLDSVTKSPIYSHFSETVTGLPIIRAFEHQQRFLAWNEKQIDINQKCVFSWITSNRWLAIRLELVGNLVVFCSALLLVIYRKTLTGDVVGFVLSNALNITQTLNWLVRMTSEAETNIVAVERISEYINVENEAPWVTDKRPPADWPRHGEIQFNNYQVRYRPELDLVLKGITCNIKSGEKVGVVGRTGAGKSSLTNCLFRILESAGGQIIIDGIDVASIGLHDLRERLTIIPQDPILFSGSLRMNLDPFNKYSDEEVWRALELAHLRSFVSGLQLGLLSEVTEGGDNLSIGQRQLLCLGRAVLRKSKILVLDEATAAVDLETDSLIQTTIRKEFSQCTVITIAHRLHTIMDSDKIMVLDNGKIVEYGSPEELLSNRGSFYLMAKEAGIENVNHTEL

In the case of CC(=O)O[C@H]1C[C@@]2(C)[C@@H](C[C@@H](O)[C@H]3[C@@]4(C)CC[C@@H](O)[C@@H](C)[C@@H]4CC[C@@]32C)/C1=C(\CCC=C(C)C)C(=O)O [FUSIDIC ACID], the Ki [1] is reported as 5.5 µM, the Ki [2] is reported as 13 µM and the Ki [3] is reported as 7.6 µM. For the same molecule, the Ki (Bile salt export pump) was 2.2 µM.
